Assay results as given in ChEMBL document CHEMBL1128898, “Sch 51048, a novel broad-spectrum orally active antifungal agent: Synthesis and preliminary structure-activity profile” (1995).

What was measured:
Type in all cases: functional
Conditions in all cases: inhaled or nasal
[1] = system: Mus musculus; assay: Compound was tested for percentage survival of immunocompromized CF-1 mice infected […] albicans strain C-65 colony forming units at dose 25 mg/Kg
[2] = system: Mus musculus; assay: Compound was tested for percentage survival of immunocompromized CF-1 mice infected […] albicans strain C-65 colony forming units at dose 50 mg/Kg
[3] = system: Mus musculus; assay: Compound was tested for percentage survival of normal CF-1 Mice infected […] albicans strain C-65 colony forming units at dose 25 mg/Kg
[4] = system: Mus musculus; assay: Compound was tested for percentage survival of normal CF-1 Mice infected […] albicans strain C-65 colony forming units at dose 50 mg/Kg
[5] = system: Mus musculus; assay: Compound was tested for percentage survival of immunocompromized CF-1 mice infected by inhalation with Aspergillus fumigatus strain ND142 conidia at dose 100 mg/Kg
[6] = system: Mus musculus; assay: Compound was tested for percentage survival of immunocompromized CF-1 mice infected by inhalation with Aspergillus fumigatus strain ND142 conidia at dose 50 mg/Kg
[7] = system: Mus musculus; assay: Compound was tested for percentage survival of immunocompromized CF-1 mice infected by inhalation with Aspergillus flavus strain ND134 at dose 100 mg/Kg
[8] = system: Mus musculus; assay: Compound was tested for percentage survival of immunocompromized CF-1 mice infected by inhalation with Aspergillus flavus strain ND134 at dose 50 mg/Kg
[9] = system: Mus musculus; assay: Compound was tested for percentage survival of immunocompromized CF-1 mice infected […] albicans strain C-65 colony forming units at dose 10 mg/Kg
[10] = system: Mus musculus; assay: Compound was tested for percentage survival of normal CF-1 Mice infected […] albicans strain C-65 colony forming units at dose 10 mg/Kg
[11] = system: Mus musculus; assay: Compound was tested for percentage survival of normal CF-1 Mice infected […] albicans strain C-65 colony forming units at dose 1 mg/kg

Work on `CCC(C)n1ncn(-c2ccc(N3CCN(c4ccc(OC[C@H]5CO[C@](Cn6cncn6)(c6cc(F)cc(F)c6)O5)cc4)CC3)cc2)c1=O` (some centres undefined) yielded a survival at 25 mg/kg [1] of 0%, a survival at 50 mg/kg [2] of 0% and a survival at 25 mg/kg [3] of 20%. For the same compound, the survival at 50 mg/kg [4] was 30%.
Compound `CC(C)n1ncn(-c2ccc(N3CCN(c4ccc(OC[C@@H]5CC[C@@](Cn6cncn6)(c6ccc(F)cc6F)C5)cc4)CC3)cc2)c1=O` has a survival at 100 mg/kg [5] of 10% and a survival at 50 mg/kg [6] of 10%.
Work on `CCC(C)n1ncn(-c2ccc(N3CCN(c4ccc(OC[C@H]5CO[C@](Cn6cncn6)(c6ccc(Cl)cc6Cl)O5)cc4)CC3)cc2)c1=O` (some centres undefined) [ITRACONAZOLE] yielded a survival at 100 mg/kg [7] of 20%, a survival at 100 mg/kg [5] of 10% and a survival at 25 mg/kg [1] of 0%. The survival at 50 mg/kg [2] was 20%, the survival at 25 mg/kg [3] was 0% and the survival at 50 mg/kg [4] was 40%.
`CCC(CC)n1ncn(-c2ccc(N3CCN(c4ccc(OC[C@@H]5CO[C@@](Cn6cncn6)(c6ccc(F)cc6F)C5)cc4)CC3)cc2)c1=O` gave a survival at 50 mg/kg [8] of 60%, a survival at 50 mg/kg [6] of 70% and a survival at 10 mg/kg [9] of 20%. It also gave a survival at 25 mg/kg [1] of 30%, a survival at 50 mg/kg [2] of 50% and a survival at 10 mg/kg [10] of 100%. It also gave a survival at 1 mg/kg [11] of 80% and a survival at 25 mg/kg [3] of 100%.
In the case of `OC(Cn1cncn1)(Cn1cncn1)c1ccc(F)cc1F` [FLUCONAZOLE], the survival at 10 mg/kg [9] is reported as 30%, the survival at 25 mg/kg [1] is reported as 40% and the survival at 10 mg/kg [10] is reported as 90%. The survival at 1 mg/kg [11] was 0% and the survival at 25 mg/kg [3] was 100%.
`O=c1n(-c2ccc(N3CCN(c4ccc(OC[C@@H]5CC[C@@](Cn6cncn6)(c6ccc(F)cc6F)C5)cc4)CC3)cc2)cnn1C1CCCC1` showed a survival at 50 mg/kg [8] of 40%, a survival at 100 mg/kg [7] of 50% and a survival at 25 mg/kg [3] of 50%. It also gave a survival at 50 mg/kg [4] of 70%.
With `CCC(C)n1ncn(-c2ccc(N3CCN(c4ccc(OC[C@@H]5CO[C@@](Cn6cncn6)(c6ccc(F)cc6F)C5)cc4)CC3)cc2)c1=O` (single isomer, unassigned) the survival at 50 mg/kg [8] was 80%, the survival at 100 mg/kg [7] was 90% and the survival at 100 mg/kg [5] was 30%. The survival at 50 mg/kg [6] was 10%, the survival at 10 mg/kg [9] was 30% and the survival at 25 mg/kg [1] was 40%. For the same compound, the survival at 50 mg/kg [2] was 40%, the survival at 10 mg/kg [10] was 80% and the survival at 25 mg/kg [3] was 90%. It also gave a survival at 50 mg/kg [4] of 100%.
